Counter-ions that a name gives are not always drawn.
These molecules were tested on E. coli BW25113 (assay: Assay 1: growth inhibition of E. coli by sub-inhibitory pyridomycin in combination with examples (resazurin reduction)). Settings: read-out: EC50 on E. coli with 8 μg/mL of pyridomycin, 8 μg/mL pyridomycin, 5 h, 37° C.
Type: cell-based, Escherichia coli
From the text: Escherichia coli BW25113 (CGSC 7636) and its derivatives E. coli ΔtolC (JW5503-1, ΔtolC732::kan, CGSC 11430), E. coli ΔacrA (JW0452-3, ΔacrA748::kan, CGSC 11843) and E. coli ΔacrB (JW0451-2, ΔacrB747::kan, CGSC 8609) were obtained from E. coli Genetic Stock Center (CGSC, New Haven, Connecticut) and originated from the Keio Collection (Baba T et al, Mol Sys Biol, 2006). Klebsiella pneumoniae (LMG 2095/ATCC 13883) and K. pneumoniae (ATCC43816), Pseudomonas aeruginosa (PAO1), Acinetobacter baumannii (LMG 1025, ATCC 17978), were obtained from ATCC or BCCM/LMG Bacteria Collection. All bacteria were grown and tested in cation-adjusted Mueller-Hinton broth (CAMHB; BD Difco) at 37° C. For conservation, log phase bacteria were frozen (−80° C.) in CAMHB supplemented with 15% glycerol.
Briefly, E. coli BW25113 were diluted from frozen or growing stocks to an OD600 of 0.0004-0.001 in CAMHB. […] E. coli BW25113 viability was evaluated using the resazurin reduction assay, and measured by fluorescence (POLARstar Omega, BMG Labtech: Ex: 530 nm Em: 590 nm). EC50 were defined as the compound concentration that prevented 50% of resazurin turnover compared to the non-treated bacteria.

First: NCCCc1nc(-c2cnc(N3CCNCC3)c(Cl)c2)no1 [Example 76, 3-[3-(5-chloro-6-piperazin-1-yl-3-pyridyl)-1,2,4-oxadiazol-5-yl]propan-1-amine; dihydrochloride]
Second: NCCCC#Cc1cnc(N2CCNCC2)c(Cl)c1 [Example 87, 5-(5-chloro-6-piperazin-1-yl-3-pyridyl)pent-4-yn-1-amine; 2,2,2-trifluoroacetic acid]
The EC50 of the first is higher: 5 to 100 µM for the first, under 5 µM for the second.

NCc1cccc(OCc2cnc(N3CCNCC3)c(Cl)c2)c1 [Example 77, [3-[(5-chloro-6-piperazin-1-yl-3-pyridyl)methoxy]phenyl]methanamine;dihydrochloride] and NCc1cccc(COc2cnc(N3CCNCC3)c(Cl)c2)c1 [Example 78, [3-[(5-chloro-6-piperazin-1-yl-3-pyridyl)oxymethyl]phenyl]methanamine;dihydrochloride] fall in the same range of EC50: 5 to 100 µM for the first, 5 to 100 µM for the second.

Clc1cc(I)cnc1N1CCNCC1 [Example 79, 1-(3-chloro-5-iodo-2-pyridyl)piperazine] and C#Cc1cnc(N2CCNCC2)c(Cl)c1 [Example 88, 1-(3-chloro-5-ethynyl-2-pyridyl)piperazine] fall in the same range of EC50: 5 to 100 µM for the first, 5 to 100 µM for the second.

CC(=O)Nc1cnc(N2CCN(C)CC2)c(Cl)c1 [Example 80, N-[5-chloro-6-(4-methylpiperazin-1-yl)-3-pyridyl]acetamide] and CN1CCN(c2nc3ccccc3cc2Cl)CC1 [Example 81, 3-chloro-2-(4-methylpiperazin-1-yl)quinoline] fall in the same range of EC50: 5 to 100 µM for the first, 5 to 100 µM for the second.

O=C(Oc1ccccc1)c1cnc(N2CCNCC2)c(Cl)c1 [Example 84, Phenyl 5-chloro-6-piperazin-1-yl-pyridine-3-carboxylate; 2,2,2-trifluoroacetic acid] and Clc1cc(C#Cc2ccccc2)cnc1N1CCNCC1 [Example 89, 1-[3-chloro-5-(2-phenylethynyl)-2-pyridyl]piperazine; 2,2,2-trifluoroacetic acid] fall in the same range of EC50: 5 to 100 µM for the first, 5 to 100 µM for the second.

NCC#Cc1cnc(N2CCNCC2)c(Cl)c1 [Example 85, 3-(5-chloro-6-piperazin-1-yl-3-pyridyl)prop-2-yn-1-amine; 2,2,2-trifluoroacetic acid] and NCCC#Cc1cnc(N2CCNCC2)c(Cl)c1 [Example 86, 4-(5-chloro-6-piperazin-1-yl-3-pyridyl)but-3-yn-1-amine; 2,2,2-trifluoroacetic acid] fall in the same range of EC50: 5 to 100 µM for the first, 5 to 100 µM for the second.

NCCc1ccc(C#Cc2cnc(N3CCNCC3)c(Cl)c2)cc1 [Example 92, 2-[4-[2-(5-chloro-6-piperazin-1-yl-3-pyridyl)ethynyl]phenyl]ethanamine; 2,2,2-trifluoroacetic acid] and NCCc1cccc(-c2ccc3nc(N4CCNCC4)c(Cl)cc3c2)c1 [Example 115, 2-[3-(3-chloro-2-piperazin-1-yl-6-quinolyl)phenyl]ethanamine;dihydrochloride] cannot be ordered by EC50: under 5 µM for the first, under 5 µM for the second.

NCCCn1cc(-c2ccc3nc(N4CCNCC4)c(Cl)cc3c2)nn1 [Example 93, 3-[4-(3-chloro-2-piperazin-1-yl-6-quinolyl)triazol-1-yl]propan-1-amine;dihydrochloride] and NCCn1cc(-c2ccc3nc(N4CCNCC4)c(Cl)cc3c2)nn1 [Example 94, 2-[4-(3-chloro-2-piperazin-1-yl-6-quinolyl)triazol-1-yl]ethanamine;dihydrochloride] cannot be ordered by EC50: under 5 µM for the first, under 5 µM for the second.

CN(C)CCn1cc(-c2ccc3nc(N4CCNCC4)c(Cl)cc3c2)nn1 [Example 95, 2-[4-(3-chloro-2-piperazin-1-yl-6-quinolyl)triazol-1-yl]-N,N-dimethyl-ethanamine;dihydrochloride] and NCc1ccnc(-c2ccc3nc(N4CCNCC4)c(Cl)cc3c2)c1 [Example 131, [2-(3-chloro-2-piperazin-1-yl-6-quinolyl)-4-pyridyl]methanamine;dihydrochloride] cannot be ordered by EC50: under 5 µM for the first, under 5 µM for the second.

O=C1NCCN1c1ccc2nc(N3CCNCC3)c(Cl)cc2c1 [Example 96, 1-(3-chloro-2-piperazin-1-yl-6-quinolyl)imidazolidin-2-one;hydrochloride] and O=C1CCCN1c1ccc2nc(N3CCNCC3)c(Cl)cc2c1 [Example 97, 1-(3-chloro-2-piperazin-1-yl-6-quinolyl)pyrrolidin-2-one;hydrochloride] cannot be ordered by EC50: under 5 µM for the first, under 5 µM for the second.

NCC1CCN(c2ccc3nc(N4CCNCC4)c(Cl)cc3c2)CC1 [Example 99, [1-(3-chloro-2-piperazin-1-yl-6-quinolyl)-4-piperidyl]methanamine;dihydrochloride] and NCC1CCN(c2ccc3nc(N4CCNCC4)c(Cl)cc3c2)C1 (centres unmarked) [Example 100, [1-(3-chloro-2-piperazin-1-yl-6-quinolyl)pyrrolidin-3-yl]methanamine;dihydrochloride] cannot be ordered by EC50: under 5 µM for the first, under 5 µM for the second.

N[C@@H]1CCN(c2ccc3nc(N4CCNCC4)c(Cl)cc3c2)C1 [Example 101, (3R)-1-(3-chloro-2-piperazin-1-yl-6-quinolyl)pyrrolidin-3-amine;dihydrochloride] and N[C@H]1CCN(c2ccc3nc(N4CCNCC4)c(Cl)cc3c2)C1 [Example 102, (3S)-1-(3-chloro-2-piperazin-1-yl-6-quinolyl)pyrrolidin-3-amine;dihydrochloride] cannot be ordered by EC50: under 5 µM for the first, under 5 µM for the second.

First: Clc1cc2cc(N[C@@H]3CCNC3)ccc2nc1N1CCNCC1 [Example 103, 3-chloro-2-piperazin-1-yl-N-[(3R)-pyrrolidin-3-yl]quinolin-6-amine;dihydrochloride]
Second: OCc1cccc(-c2ccc3nc(N4CCNCC4)c(Cl)cc3c2)c1 [Example 108, [3-(3-chloro-2-piperazin-1-yl-6-quinolyl)phenyl]methanol;hydrochloride]
The EC50 of the first is higher: 5 to 100 µM for the first, under 5 µM for the second.

C[C@@H](N)c1cccc(-c2ccc3nc(N4CCNCC4)c(Cl)cc3c2)c1 [Example 113, (1R)-1-[3-(3-chloro-2-piperazin-1-yl-6-quinolyl)phenyl]ethanamine;dihydrochloride] and CC(C)(N)c1cccc(-c2ccc3nc(N4CCNCC4)c(Cl)cc3c2)c1 [Example 114, 2-[3-(3-chloro-2-piperazin-1-yl-6-quinolyl)phenyl]propan-2-amine;dihydrochloride] cannot be ordered by EC50: under 5 µM for the first, under 5 µM for the second.

NCc1ccc(C(F)(F)F)c(-c2ccc3nc(N4CCNCC4)c(Cl)cc3c2)c1 [Example 122, [3-(3-chloro-2-piperazin-1-yl-6-quinolyl)-4-(trifluoromethyl)phenyl]methanamine;dihydrochloride] and NCc1cccc(-c2ccc3nc(N4CCNCC4)c(Cl)cc3c2)c1Cl [Example 136, [2-chloro-3-(3-chloro-2-piperazin-1-yl-6-quinolyl)phenyl]methanamine;dihydrochloride] cannot be ordered by EC50: under 5 µM for the first, under 5 µM for the second.

NCc1cncc(-c2ccc3nc(N4CCNCC4)c(Cl)cc3c2)c1 [Example 132, [5-(3-chloro-2-piperazin-1-yl-6-quinolyl)-3-pyridyl]methanamine;dihydrochloride] and NCc1cc(Cl)cc(-c2ccc3nc(N4CCNCC4)c(Cl)cc3c2)c1 [Example 137, [3-chloro-5-(3-chloro-2-piperazin-1-yl-6-quinolyl)phenyl]methanamine;dihydrochloride] cannot be ordered by EC50: under 5 µM for the first, under 5 µM for the second.
